Assay results from ChEMBL document CHEMBL3879888, “2,4,6-triamino-1,3,5-triazine derivative” (2008).
Activity calls are given as the source filed them. No cut-off for these calls is given here.

The molecules below were run against T1, Voltage-gated inwardly rectifying potassium channel KCNH3 (Homo sapiens) (UniProt Q9ULD8) (assay: Inhibition of BEC1 (unknown origin) expressed in dihydrofolate reductase-deficient CHO cells assessed as decrease in KCl-induced intracellular 86Rb ion release at 3 uM after 20 mins relative to control).
T1 sequence (whole entry): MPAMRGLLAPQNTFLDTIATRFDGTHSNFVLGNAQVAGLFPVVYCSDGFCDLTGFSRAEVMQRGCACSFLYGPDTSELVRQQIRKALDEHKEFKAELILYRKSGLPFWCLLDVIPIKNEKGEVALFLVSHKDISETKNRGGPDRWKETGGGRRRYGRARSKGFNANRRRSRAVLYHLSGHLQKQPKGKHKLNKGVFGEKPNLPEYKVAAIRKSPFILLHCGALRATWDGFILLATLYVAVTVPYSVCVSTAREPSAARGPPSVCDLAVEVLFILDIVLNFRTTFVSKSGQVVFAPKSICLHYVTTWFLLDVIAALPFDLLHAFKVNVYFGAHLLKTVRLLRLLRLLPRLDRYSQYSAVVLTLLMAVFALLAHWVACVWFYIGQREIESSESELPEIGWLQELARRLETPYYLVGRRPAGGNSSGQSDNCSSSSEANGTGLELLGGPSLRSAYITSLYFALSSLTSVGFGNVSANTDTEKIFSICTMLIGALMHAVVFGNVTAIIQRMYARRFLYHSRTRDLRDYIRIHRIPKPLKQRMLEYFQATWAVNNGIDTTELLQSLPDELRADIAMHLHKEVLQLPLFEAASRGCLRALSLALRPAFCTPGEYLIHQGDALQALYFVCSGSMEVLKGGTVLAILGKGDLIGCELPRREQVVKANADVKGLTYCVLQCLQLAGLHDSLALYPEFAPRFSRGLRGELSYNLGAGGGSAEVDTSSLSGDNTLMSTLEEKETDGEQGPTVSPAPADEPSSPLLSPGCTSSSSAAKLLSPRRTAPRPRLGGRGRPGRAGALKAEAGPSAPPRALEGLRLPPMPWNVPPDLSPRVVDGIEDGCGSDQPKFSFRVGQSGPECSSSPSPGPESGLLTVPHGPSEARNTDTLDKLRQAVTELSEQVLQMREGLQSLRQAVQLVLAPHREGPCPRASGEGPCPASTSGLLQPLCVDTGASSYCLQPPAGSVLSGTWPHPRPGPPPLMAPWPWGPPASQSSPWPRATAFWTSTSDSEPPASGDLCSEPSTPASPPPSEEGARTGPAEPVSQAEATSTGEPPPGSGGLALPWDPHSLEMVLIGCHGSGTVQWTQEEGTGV
Assay type: cell-based

Structure (SMILES)	inhibition
CC(C)Nc1nc(Nc2ccccc2)nc(Nc2ccc(F)cc2)n1	25%
O=[N+]([O-])c1cccc(Nc2nc(Nc3ccccc3)nc(Nc3ccccc3)n2)c1	12%
OC[C@@H](CNc1nc(Nc2ccccc2)nc(Nc2ccccc2)n1)c1ccccc1	50%
CCOC(=O)CCCNc1nc(Nc2ccccc2)nc(Nc2ccccc2)n1	29%
C=CCNc1nc(Nc2ccccc2)nc(Nc2ccccc2)n1	44%
Clc1ccc(CNc2nc(Nc3ccccc3)nc(Nc3ccccc3)n2)cc1	45%
c1ccc(Nc2nc(NCc3cccnc3)nc(Nc3ccccc3)n2)cc1	59%
CC(C)Nc1nc(Nc2ccc(Br)cc2)nc(Nc2ccc(Br)cc2)n1	11%
Cc1ccc([N+](=O)[O-])cc1Nc1nc(Nc2ccccc2)nc(Nc2ccccc2)n1	22%
c1ccc(Nc2nc(NCC3CC3)nc(Nc3ccccc3)n2)cc1	51%
CCOC(=O)C(C)Nc1nc(Nc2ccccc2)nc(Nc2ccccc2)n1 (stereo not drawn)	36%
c1ccc(Nc2nc(NCCc3cccs3)nc(Nc3ccccc3)n2)cc1	10%
O=C1NCCCC[C@@H]1Nc1nc(Nc2ccccc2)nc(Nc2ccccc2)n1	10%
Brc1ccc(CNc2nc(Nc3ccccc3)nc(Nc3ccccc3)n2)cc1	33%
O=C1NCCCCC1Nc1nc(Nc2ccccc2)nc(Nc2ccccc2)n1 (stereo not drawn)	23%
CSC1CCC[C@H]1Nc1nc(Nc2ccccc2)nc(Nc2ccccc2)n1 (stereo partly drawn)	34%
CC(C)Nc1nc(Nc2ccccc2)nc(Nc2ccc3c(c2)CCC3)n1	18%
O=[N+]([O-])c1ccc(CCNc2nc(Nc3ccccc3)nc(Nc3ccccc3)n2)cc1	33%
c1ccc(Nc2nc(Nc3ccccc3)nc(NC3CCCC3)n2)cc1	19%

Structure (SMILES)	inhibition
NC(=O)CNc1nc(Nc2ccccc2)nc(Nc2ccccc2)n1	22%
CSc1ccccc1Nc1nc(Nc2ccccc2)nc(Nc2ccccc2)n1	17%
CC(C)Nc1nc(Nc2ccccc2)nc(Nc2ccc3c(c2)OCCO3)n1	40%
CSC1COC[C@H]1Nc1nc(Nc2ccccc2)nc(Nc2ccccc2)n1 (stereo partly drawn)	49%
CSc1ccc(Nc2nc(Nc3ccc(SC)cc3)nc(NC(C)C)n2)cc1	10%
c1ccc(Nc2nc(Nc3ccccc3)nc(Nc3ccc4c(c3)OCCO4)n2)cc1	15%
Fc1ccccc1CNc1nc(Nc2ccccc2)nc(Nc2ccccc2)n1	33%
Fc1cccc(CNc2nc(Nc3ccccc3)nc(Nc3ccccc3)n2)c1	34%
Cc1cc(O)ccc1Nc1nc(Nc2ccccc2)nc(Nc2ccccc2)n1	31%
Cc1cnc(CNc2nc(Nc3ccccc3)nc(Nc3ccccc3)n2)cn1	29%
CC(C)Nc1nc(Nc2ccccc2)nc(Nc2ccc(Br)cc2)n1	27%
CCOC(=O)CNc1nc(Nc2ccccc2)nc(Nc2ccccc2)n1	21%
Cc1c(O)cccc1Nc1nc(Nc2ccccc2)nc(Nc2ccccc2)n1	37%
Cc1ccc(CNc2nc(Nc3ccccc3)nc(Nc3ccccc3)n2)cc1	35%
COc1ccc(CNc2nc(Nc3ccccc3)nc(Nc3ccccc3)n2)cc1	31%
CC(C)Nc1nc(Nc2ccc3c(c2)OCCO3)nc(Nc2ccc3c(c2)OCCO3)n1	11%
OCCc1ccccc1Nc1nc(Nc2ccccc2)nc(Nc2ccccc2)n1	40%
OC1CCCCC1Nc1nc(Nc2ccccc2)nc(Nc2ccccc2)n1 (stereo not drawn)	23%

What follows are molecules tested on Mus musculus (assay: Inhibition of electroconvulsive shock-induced amnesia in ddy mouse at 3 mg/kg, ip by passive avoidance test).
Assay type: functional, organism-based

Structure (SMILES)	inhibition
Fc1ccc(Nc2nc(NCc3ccnc(F)c3)nc(Nc3ccccc3)n2)cc1	Active
